Patent publication US9879015B2, “Pyrazino[1,2-a]indole compounds, their preparation and use in medicaments” (LABORATORIOS DEL DR. ESTEVE S.A., priority 2013, dated 2018)
Where a name gives a salt, the structure may show the parent alone.

biological target: T1, human sigma 1 receptor (Homo sapiens, UniProt Q99720); assay: Human sigma 1 receptor radioligand assay ([3H](+)-pentazocine, transfected HEK-293 membranes); format: binding; settings: 5 nM [3H](+)-pentazocine, 37° C., 120 minutes
T1 construct: expressed in transfected cells; host or cells: HEK-293
Method: Biological Activity Pharmacological Study Human Sigma 1 Receptor Radioligand Assay
To investigate binding properties of sigma 1 receptor ligands to human sigma 1 receptor, transfected HEK-293 membranes and [^3H](+)-pentazocine (Perkin Elmer, NET-1056), as the radioligand, were used. The assay was carried out with 7 μg of membrane suspension, 5 nM of [^3H](+)-pentazocine in either absence or presence of either buffer or 10 μM Haloperidol for total and non-specific binding, respectively. Binding buffer contained Tris-HCl 50 mM at pH 8. Plates were incubated at 37° C. for 120 minutes. After the incubation period, the reaction mix was then transferred to MultiScreen HTS, FC plates (Millipore), filtered and plates were washed 3 times with ice-cold 10 mM TrisHCL (pH7.4). Filters were dried and counted at approximately 40% efficiency in a MicroBeta scintillation counter (Perkin-Elmer) using EcoScint liquid scintillation cocktail.

T1 sequence (Q99720 whole entry): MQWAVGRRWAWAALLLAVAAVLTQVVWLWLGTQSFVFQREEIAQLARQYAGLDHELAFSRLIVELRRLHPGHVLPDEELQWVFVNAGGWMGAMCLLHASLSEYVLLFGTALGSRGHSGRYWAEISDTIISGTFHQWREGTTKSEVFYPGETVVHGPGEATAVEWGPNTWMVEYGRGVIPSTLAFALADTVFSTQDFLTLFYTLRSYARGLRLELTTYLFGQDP

Structure (SMILES)	Ki
CC(CN1CCn2c(cc3ccccc32)C1)N1CCN(C)CC1 (stereo not shown) [Example 1, 2-(2-(4-methylpiperazin-1-yl)propyl)-1,2,3,4-tetrahydropyrazino[1,2-a]indole]	29.8 nM
c1ccc2c(c1)CC1CN(CCN3CCCCCC3)CCN21 (stereo not shown) [Example 2, 2-(2-(azepan-1-yl)ethyl)-1,2,3,4,10,10a-hexahydropyrazino[1,2-a]indole]	7.3 nM
c1ccc2c(c1)cc1n2CCN(CCN2CCCCCC2)C1 [Example 3, 2-(2-(azepan-1-yl)ethyl)-1,2,3,4-tetrahydropyrazino[1,2-a]indole hydrochloride]	3.9 nM
c1ccc(CC2CCN(CCN3CCn4c(cc5ccccc54)C3)CC2)cc1 [Example 4, 2-(2-(4-benzylpiperidin-1-yl)ethyl)-1,2,3,4-tetrahydropyrazino[1,2-a]indole hydrochloride]	14.6 nM
CN1CCN(CCN2CCn3c(cc4ccccc43)C2)CC1 [Example 5, 2-(2-(4-methylpiperazin-1-yl)ethyl)-1,2,3,4-tetrahydropyrazino[1,2-a]indole hydrochloride]	153 nM
CC(CN1CCn2c(cc3ccccc32)C1)N1CCC(Cc2ccccc2)CC1 (stereo not shown) [Example 6, 2-(2-(4-benzylpiperidin-1-yl)propyl)-1,2,3,4-tetrahydropyrazino[1,2-a]indole maleate]	175 nM
CN(C)CCCCN1CCn2c(cc3ccccc32)C1 [Example 7, 4-(3,4-dihydropyrazino[1,2-a]indol-2(1H)-yl)-N,N-dimethylbutan-1-amine]	89.1 nM
Cc1c2n(c3ccccc13)CCN(CCN1CCCCCC1)C2 [Example 8, 2-(2-(azepan-1-yl)ethyl)-10-methyl-1,2,3,4-tetrahydropyrazino[1,2-a]indole]	12.5 nM
Fc1ccc2c(c1)cc1n2CCN(CCN2CCCCCC2)C1 [Example 9, 2-(2-(azepan-1-yl)ethyl)-8-fluoro-1,2,3,4-tetrahydropyrazino[1,2-a]indole]	1.9 nM
Cc1ccc2c(c1)cc1n2CCN(CC(C)N2CCCCCC2)C1 (stereo not shown) [Example 10, 2-(2-(azepan-1-yl)propyl)-8-methyl-1,2,3,4-tetrahydropyrazino[1,2-a]indole]	7.4 nM
Cc1c2n(c3ccccc13)CCN(CCN1CCC(Cc3ccccc3)CC1)C2 [Example 11, 2-(2-(4-benzylpiperidin-1-yl)ethyl)-10-methyl-1,2,3,4-tetrahydropyrazino[1,2-a]indole]	21.4 nM
Fc1ccc2c(c1)cc1n2CCN(CCCCN2CCCCC2)C1 [Example 12, 8-fluoro-2-(4-(piperidin-1-yl)butyl)-1,2,3,4-tetrahydropyrazino[1,2-a]indole]	7.6 nM
c1ccc2c(c1)cc1n2CCN(CCCN2CCCCCC2)C1 [Example 13, 2-(3-(azepan-1-yl)propyl)-1,2,3,4-tetrahydropyrazino[1,2-a]indole]	19.9 nM
c1ccc2c(c1)cc1n2CCN(CCCCN2CCCCC2)C1 [Example 14, 2-(4-(piperidin-1-yl)butyl)-1,2,3,4-tetrahydropyrazino[1,2-a]indole]	13.5 nM
Fc1ccc2c(c1)cc1n2CCN(CCCCN2CCCCCC2)C1 [Example 15, 2-(4-(azepan-1-yl)butyl)-8-fluoro-1,2,3,4-tetrahydropyrazino[1,2-a]indole]	8.6 nM
CN1CCN(CCCCN2CCn3c(cc4ccccc43)C2)CC1 [Example 16, 2-(4-(4-methylpiperazin-1-yl)butyl)-1,2,3,4-tetrahydropyrazino[1,2-a]indole]	35.8 nM
CC(CN1CCn2c(cc3ccccc32)C1)N1CCN(C2CCCCC2)CC1 (stereo not shown) [Example 17, 2-(2-(4-cyclohexylpiperazin-1-yl)propyl)-1,2,3,4-tetrahydropyrazino[1,2-a]indole]	9.2 nM
CC(CN1CCn2c(cc3cc(F)ccc32)C1)N1CCN(C)CC1 (stereo not shown) [Example 18, 8-fluoro-2-(2-(4-methylpiperazin-1-yl)propyl)-1,2,3,4-tetrahydropyrazino[1,2-a]indole]	14.1 nM
CN(C)CCCCN1CCN2c3ccccc3CC2C1 (stereo not shown) [Example 19, N,N-dimethyl-4-(3,4,10,10a-tetrahydropyrazino[1,2-a]indol-2(1H)-yl)butan-1-amine]	153 nM
